Patent US20030054389A1, “Methods for identifying agents that induce a cellular phenotype, and compositions thereof” (priority 2001, published 2003)

Tests used:
HS294T cells = experiment: Nuclear condensation / ethidium homodimer and Syto16 staining, HS294T; assay type: cell-based
Protocol: (§1) Two cell lines, WM35 and HS294T, were plated out (50,000 cells per well, 24 well plate) and allowed to adhere. After 24 hours, the cells were treated for 4 hours with varying concentrations (5-80 μM) of Cisplatin (cis-platinum (II) diammine dichloride), a well-known chemotherapeutic agent that induces apoptosis. […] Adherent cell populations were then lifted from the solid support by trypsinization, centrifuged (400× g), and resuspended in PBS (0.125 ml). To observe the nuclear morphology and percent cell death in the WM35 and HS294T cell lines, cells from both floater and adherent populations were stained concurrently with Syto16 and ethidium homodimer (125 ul of cell suspension+2.5 ul 62.5uM Sytol6+[…] 10 ug/ml ethidium homodimer, 10 minutes at 37° C.). Ethidium homodimer is a membrane impermeant compound that fluoresces in the 617 nm range when it is intercalated with chromosomal DNA. Thus, in a mixed cell population containing both living and dead/dying cells, only those cells whose membranes have been compromised will stain with ethidium homodimer. In contrast, Syto 16 (Molecular Probes) is a membrane permeant dye that fluoresces in the 518 nm range when associated with chromosomal DNA. Together, these two dyes can be used to observe and distinguish the nuclear morphology in a population containing both living and dead/dying cells.

WM35 cells = experiment: Nuclear condensation / ethidium homodimer and Syto16 staining, WM35; assay type: cell-based
Protocol: as §1

WM35 (melanoma) cells = experiment: Caspase-3 fluorescent substrate (Rhodamine 123-YVAD) and PI staining of WM35 floaters; assay type: cell-based; conditions: Cisplatin 15 μg/ml, floaters collected 18-24 hours after induction
Protocol: WM35 cells were passed one day prior to induction of apoptosis and incubated for 24 hrs to allow the cells to attach to the substrate. The media was subsequently removed, the remaining adherent cells washed 1× with PBS, and subsequently exposed to Cisplatin (15 μg/ml) in fresh media. Eighteen to twenty-four hours after the induction of apoptosis, the floater cell population was collected, pelleted by centrifugation (400× g), and resuspended at 3×10^6 cells/ml in PBS. Samples were then split into four groups: (I) uninduced minus Rhodamine 123-YVAD (substrate), (2) uninduced plus substrate, (3) induced minus substrate, and (4) induced plus substrate. For samples exposed to Rhodamine 123-YVAD substrate, 50 ul of a pre-warmed (37° C.) cell suspension was combined with 25 ul of a stock substrate solution (Celiprobe). Samples were incubated for 60 minutes at 37° C. and then placed on ice prior to FACS analysis. In addition to caspase-3 staining, a replicate of each sample was stained with propidium iodide to determine the percentage of cells within the population whose membranes had been compromised and the overlap between PI and caspase-3 staining. […] Emission spectra were read at 515-535 nm wavelength using the FLI (PMT2) 525 nm blue filter.

T47D cells = experiment: Camptothecin kill curve in T47D cells; assay type: cell-based
Protocol: Approximately 250,000 cells were seeded into each well of a six well plate. Cells were then grown in media containing camptothecin of varying concentrations (0-10 uM). After 5 days, the number of cells remaining in each of the camptothecin-treated wells was compared with untreated controls. From these experiments, it was determined that camptothecin concentrations ranging from 1-4 nM had no effect on T47D cell number over the course of the 5 days of treatment. […] In order to determine whether this level of treatment is concomitantly increasing the number of floaters in the population, several flasks are seeded with T47D cells and then treated with 1-4 nM concentrations of camptothecin. After a period of three to five days, the media is collected and the number of floater cells are counted and compared to the total number of cells in the flask (floaters+adherents).

[1] = test system: ECR293 cells containing pBIGFII and ecdysone receptor (pVgRXR); experiment: Ecdysone-inducible pBIGFII vector fluorescence in ECR293 cells; assay type: cell-based; conditions: 5 μM ponesterone A
Source text: As an alternative to the constitutive pCLMFG vector, an inducible construct that can be regulated by ecdysone was constructed as follows. The PmlI/XhoI fragment from pVT324 was inserted into the MCS of the PIND vector (Invitrogen). This product was then digested with BglII, blunt-ended and inserted into a pBabe-K-ras vector (pVT313-based) that had been digested with BamHI/XhoI and blunted (Klenow Fragment). The resulting vector was designated pBabe-Forward-1. The XbaI fragment of pVT324 was then inserted into the compatible site of pBabe-Forward-1. The resulting vector was designated pBIGFII. Vector pBIGFII was subsequently transfected into cells (ECR293, Invitrogen) that contain an endogenous copy of the ecdysone receptor (pVgRXR).

HuVEC 9F0293 cells = experiment: Time course of detachment and PI staining of HuVEC 9F0293; assay type: cell-based, Human; conditions: puromycin 2 ug/ml
Protocol: To determine the time course in which dead and/or dying HuVECs detach from the solid support in response to a cytotoxic agent, 9F0293 cells were plated and subsequently treated with puromycin (2 ug/ml). Both floater and adherent cell populations were then collected at varying times (t=4, 7, 9, 16, 20, and 24 hours) and analyzed to determine (a) the percent PI^+ cells in the floater population and (b) the fraction of cells which became floaters. […] The fraction of floaters that stained with PI (PI^+ population) increased with time.

HT29 cells = experiment: Induction of apoptosis in HT29 cells carrying pVT324; assay type: cell-based, human; conditions: after 48 hours of treatment
Protocol: Cells that are positive for PI uptake may either be necrotic, or be in the late stages of apoptosis. In order to address specifically the question of whether DNA recovered from cells undergoing apoptosis can serve as a good template for PCR, the following experiment was performed. HT29 cells containing a retroviral construct that constitutively expresses GFP (pVT324) were treated with sulindac sulfide to induce apoptosis. […] Apoptotic cells were counted into PCR tubes and PCR was carried out using primers specific for the amplification of the retroviral GFP construct. Live cells from an untreated culture were used as PCR controls. There was no apparent difference in amplification of the GFP product from apoptotic cells when compared to live cells (FIG. 11). Thus DNA recovered from cells undergoing either necrotic or apoptotic cell death can serve as an effective template for PCR amplification and construction of sublibraries.

HMEC 96A cells = experiment: Floater assay with propidium iodide viability, HMEC 96A; assay type: cell-based, human; conditions: for Propidium Iodide Staining / Percent Floaters: HMEC 96A
Protocol: (§2) A floater assay involving primary human mammary cells (HMECs), immortalized and transformed with a minimum number of genetic elements, was performed as follows. Primary pooled HMECs (Biowhittaker/Clonetics) were immortalized and transformed with two methods: 1) Serial introduction and expression of retroviral constructs encoding SV-40 Lg T Ag, human telomerase catalytic subunit hTERT, and activated V12H-ras (method of Hahn, et al, Nature 400: 464-468, 1999) and 2) serial introduction and expression of constructs encoding HPV-16 E6/E7, hTERT and V12H-ras. The lines are designated 96C and 96A, respectively. The retroviral constructs BABE/neomycin/SV-40 Lg T Ag BABE/LNCX/puromycin/hTERT, LXSN/hygromycin/V-12H-Ras and LXSN/neomycin/HPV-16 E6/E7 were utilized.
(§3) To determine background floater rates, cells were plated to 20% confluency in three 100 mm dishes (100000 cells/dish) and the number of floaters as a percentage of total cells (adherent+floaters) and the viability of floaters ascertained at two, three and four days post-platin . Viability was assessed by measuring propidium iodide uptake. In addition to untreated controls, a transduction control vector pVT 340 (pCLMFG/GFP) and a positive control BID/MFG vector, a pro-apoptotic protein previously identified in a colorectal carcinoma HT29 negative selection, were utilized. Cells were transduced with 30% (v/v) viral supernatants at 95% and 45% rates, respectively.

HMEC 96C cells = experiment: Floater assay with propidium iodide viability, HMEC 96C; assay type: cell-based, human; conditions: for Propidium Iodide Staining / Percent Floaters: HMEC 96C
Protocol: as §2, §3

In the case of N.N.[Cl-].[Cl-].[Pt+2] [Cisplatin, cis-platinum (II) diammine dichloride], the “ethidium homodimer staining of adherent cell population” value (HS294T cells; HS294T adherent cells, Cisplatin experiment) is reported as under 10%, the “cells showing condensed or fragmented nuclei” value (HS294T cells; HS294T floaters stained with ethidium homodimer, Cisplatin treated) is reported as under 20% and the “floater cells stained with ethidium homodimer” value (HS294T cells; HS294T floaters, Cisplatin 5-80 μM 4 hours, collected 18-24 hrs later) is reported as “greater than 50%”. For the same molecule, the “ethidium homodimer staining of adherent cell population” value (WM35 cells; WM35 adherent cells, Cisplatin experiment) was under 10%, the “floater cells stained with ethidium homodimer” value (WM35 cells; WM35 floaters, Cisplatin treated) was 45-50% and the “condensed or fragmented nuclei” value (WM35 cells; WM35 floaters, higher concentrations of Cisplatin) was 40-50%. For the same molecule, the “caspase-3 positive cells among PI-minus floater cells” value (WM35 (melanoma) cells) was 94.6%.

For CC[C@@]1(O)C(=O)OCc2c1cc1n(c2=O)Cc2cc3ccccc3nc2-1 [camptothecin], the “cell number relative to untreated control” value (T47D cells; 10 nM camptothecin, 5 days) was “roughly one third that found in the untreated control”, the “concentration tolerated without adverse effect on cell viability or division” value (T47D cells; 5 days) was “up to 4 nM” and the “concentrations at which virtually no cells remained adhered to the plate” value (T47D cells; 5 days) was “greater than 50 nM”. The “concentrations resulting in a decrease in cell number relative to untreated control” value (T47D cells; 5 days) was “greater than 4 nM” and the “concentrations with no effect on T47D cell number” value (T47D cells; 5 days of treatment) was 1 to 4 nM.

CC(C)CC[C@@H](O)[C@](C)(O)[C@H]1CC[C@@]2(O)C3=CC(=O)[C@@H]4C[C@@H](O)[C@@H](O)C[C@]4(C)[C@H]3CC[C@]12C [ponesterone A] was tested, and the “increase of fluorescence level versus absence of inducer” value [1] was “increases by approximately thirty fold”.

For COc1ccc(C[C@H](N)C(=O)N[C@H]2[C@@H](O)[C@H](n3cnc4c(N(C)C)ncnc43)O[C@@H]2CO)cc1 [puromycin], the “time course of detachment” value (HuVEC 9F0293 cells) was “the majority of HuVECs detached by the 16-hour time point”, the “floater cells in the PI+ gate” value (HuVEC 9F0293 cells; by 20 hours) was “nearly all” and the “cells that became floaters” value (HuVEC 9F0293 cells; within 24 hours) was 90-99%. The “PI− versus PI+ floater cells” value (HuVEC 9F0293 cells; 4, 7, and 9 hours) was “near equal numbers”.

CSc1ccc(/C=C2/C(C)=C(CC(=O)O)c3cc(F)ccc32)cc1 [sulindac sulfide] was tested, and the “cell detachment and apoptotic morphology” value (HT29 cells) was “the majority of the cells had detached from the dish and showed typical apoptotic morphology”.

B1: BID: positive control BID/MFG vector, a pro-apoptotic protein previously identified in a colorectal carcinoma HT29 negative selection (protein, UniProt P55957 1-195, looked up)
BH3-interacting domain death …: MDCEVNNGSSLRDECITNLLVFGFLQSCSDNSFRRELDALGHELPVLAPQWEGYDELQTDGNRSSHSRLGRIEADSESQEDIIRNIARHLAQVGDSMDRSIPPGLVNGLALQLRNTSRSEEDRNRDLATALEQLLQAYPRDMEKEKTMLVLALLLAKKVASHTPSLLRDVFHTTVNFINQNLRTYVRSLARNGMD
modifications: expressed from MFG retroviral vector
notes: positive control BID/MFG vector, a pro-apoptotic protein previously identified in a colorectal carcinoma HT29 negative selection
B1 was tested, and the “Propidium Iodide Staining” value (HMEC 96A cells; Adherent, DAY 3) was 1.6%, the “Propidium Iodide Staining” value (HMEC 96A cells; Adherent, DAY 4) was 0.4% and the “Percent Floaters” value (HMEC 96A cells; DAY 2) was 54%. For the same molecule, the “Percent Floaters” value (HMEC 96A cells; DAY 3) was 25%, the “Percent Floaters” value (HMEC 96A cells; DAY 4) was 8% and the “Propidium Iodide Staining” value (HMEC 96A cells; Floaters, DAY 3) was 72%. The “Propidium Iodide Staining” value (HMEC 96A cells; Floaters, DAY 4) was 45%, the “propidium iodide positive in adherents” value (HMEC 96A cells; line 96A, days 3 and 4) was 0.4-1.6% and the “propidium iodide positive in floaters” value (HMEC 96A cells; line 96A, days 3 and 4) was 45-75%. The “Propidium Iodide Staining” value (HMEC 96C cells; Adherent, DAY 3) was 8.5%, the “Propidium Iodide Staining” value (HMEC 96C cells; Adherent, DAY 4) was 0.5% and the “Percent Floaters” value (HMEC 96C cells; DAY 2) was 46%. For the same molecule, the “Percent Floaters” value (HMEC 96C cells; DAY 3) was 58%, the “Percent Floaters” value (HMEC 96C cells; DAY 4) was 7% and the “Propidium Iodide Staining” value (HMEC 96C cells; Floaters, DAY 3) was 81%. For the same molecule, the “Propidium Iodide Staining” value (HMEC 96C cells; Floaters, DAY 4) was 70%, the “propidium iodide positive (adherents)” value (HMEC 96C cells; line 96C, days 3 and 4) was 0.5-8.5% and the “propidium iodide positive in floaters” value (HMEC 96C cells; line 96C, days 3 and 4) was 70-81%.
